From patent US10729738B2, “Hindered disulfide drug conjugates” (priority 2015, dated 2020)
*1 amine or outer side, *2 acyl side, *3 side chain or, on linkers, in order; H or OH if unused. Where a SMILES comes first, the peptide text is derived from it. [ ]: non-standard residue; d: D form. The star is where a group is joined. Dolaproine = CO[C@@H]([C@@H]1CCCN1)[C@@H](C)C(=O)O; X22 = CC(C)(COC(=O)*)SSc1nc2cccc(C(=O)O)c2[nH]1; X15 = C[C@H](COC(=O)*)SSc1ccc([N+](=O)[O-])cn1; Dil = CC[C@H](C)[C@H](NC)[C@@H](CC(=O)O)OC; X19 = Cn1cc(C(=O)O)nc1SSC(C)(C)COC(=O)*; PABC = O=C(OCc1ccc(N[*:1])cc1)[*:2]; X2 = C[C@@H](N*)[C@@H](O)c1ccccc1; X21 = CC(C)(COC(=O)*)SSc1ncc[nH]1; X20 = Cn1cnnc1SSC(C)(C)COC(=O)*; X18 = CC(C)(COC(=O)*)SSC(=N)N; NMeV = CN[C@H](C(=O)O)C(C)C

Key:
[1] = target: T1, penetratin (AntP) peptide (Drosophila melanogaster, UniProt P02833); assay: Conjugation of activated disulfide-MMAE molecules to penetratin (AntP) peptide (% Product); details: peptide 25 uM, disulfide MMAE 5 equivalents, 75 mM Tris pH 8.5 and 10% DMF, ~16 hours at room temperature, UV peak area
T1 construct: C-terminal amide (CONH2); made in house; host or cells: chemical synthesis (Fmoc solid-phase peptide synthesis)
Protocol: In a second evaluation, MMAE was conjugated to penetratin (AntP) peptide. The AntP peptide, with sequence H2N-[…]-CONH2 (SEQ ID NO:1) bearing a free Cys thiol at the C-terminus, was synthesized via standard Fmoc solid-phase peptide synthesis methods. This peptide was conjugated at a concentration of 25 uM to disulfide MMAE molecules with varying leaving groups (5 equivalents) in a buffered solution composed of 75 mM Tris, pH 8.5 and 10% DMF for ˜16 hours at room temperature. Extent of the reaction was measured by dividing the integrated area for the UV peak of the MMAE-AntP conjugate by the sum of all peaks (“% Product”). The ideal value for % Product is 100%. The results are reported in table 31 below wherein the wavy line for the leaving group represent the point of attachment to the disulfide bond, and “AntP % P” refers to penetratin (AntP) peptide % product.

[2] = target: human serum albumin Cys-34 (Homo sapiens, UniProt P02768); assay: Conjugation of activated disulfide-MMAE molecules to human serum albumin (Conjugate Ratio, LC/MS); details: disulfide MMAE compound at 10 molar equivalents relative to HSA, 75 mM Tris pH 8.5, ~16 hours at room temperature
Sequence of human serum albumin Cys-34 (P02768 25-609): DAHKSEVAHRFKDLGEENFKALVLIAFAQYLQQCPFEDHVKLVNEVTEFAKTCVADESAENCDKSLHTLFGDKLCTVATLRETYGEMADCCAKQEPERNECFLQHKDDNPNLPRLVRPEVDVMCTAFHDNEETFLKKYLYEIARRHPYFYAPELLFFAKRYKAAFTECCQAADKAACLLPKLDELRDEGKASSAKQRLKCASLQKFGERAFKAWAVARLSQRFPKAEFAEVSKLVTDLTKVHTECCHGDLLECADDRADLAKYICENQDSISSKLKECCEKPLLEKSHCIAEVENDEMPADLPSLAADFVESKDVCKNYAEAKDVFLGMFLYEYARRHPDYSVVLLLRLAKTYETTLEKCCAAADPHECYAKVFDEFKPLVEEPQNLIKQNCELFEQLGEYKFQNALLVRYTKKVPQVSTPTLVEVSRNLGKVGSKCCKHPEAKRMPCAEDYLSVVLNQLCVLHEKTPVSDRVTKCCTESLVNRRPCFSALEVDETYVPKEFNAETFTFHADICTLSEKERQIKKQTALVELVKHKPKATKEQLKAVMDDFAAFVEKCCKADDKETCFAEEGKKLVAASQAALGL
Protocol: In a first evaluation, MMAE was conjugated to human serum albumin (HSA). […] This Cys residue is blocked as a mixed disulfide with Cys or glutathione, preventing complete conjugation of other molecules to this residue. […] Conjugate reactions were analyzed by LC/MS. The extent of the expected MMAE-HSA conjugate formed during the reaction is represented by the “Conjugate Ratio”, measured by dividing the abundance of the MS peak for the MMAE-HSA conjugate by the sum total abundance of all peaks observed. The ideal value for the Conjugate Ratio is 1.0. The results are reported in table 31 below wherein the wavy line for the leaving group represents the point of attachment to the disulfide bond, and “HSA CR” refers to human serum albumin conjugate ratio.

[3] = In vitro disulfide cleavage and immolation by incubation with cysteine or glutathione (LC/MS); format: physicochemical; details: for Percentage of all products: pH 7.0, 37° C.
Protocol: In a first phase of the experiment, disulfide cleavage and immolation by incubation with cysteine and glutathione—with the thiol concentrations mimic those in plasma and cancer cells—was investigated using unconjugated small molecule model systems with para-nitro-pyridyl disulfide-containing linker drug analogs 1, 2 and 11 below. In particular, cleavage and immolation was evaluated in vitro by incubation at […] with cysteine ([…] or 200 μM) or glutathione (GSH, 4 mM) in 100 mM Tris buffer pH 7.0 containing 5% methanol at 37° C. Aliquots were taken at specified time points and the samples were analyzed by LC/MS on Sciex TripleTOF 5600 on a Hypersil Gold C18 column (100×2.1, […], Thermo Scientific). The column was eluted by a gradient of buffer A (0.1% formic acid in 10 mM ammonium acetate) to buffer B (0.1% formic acid in 10 mM ammonium acetate in 90% acetonitrile), 5% B 0-0.5 min, 5-25% B 0.5-8 min, 25-75% B 8-13 min, and 75-95% B 13-13.5 min, 95% B 13.5-14.5 min, 95-5% B 14.5-15 min at 0.4 mL/min. Under these conditions, para-nitropyridyl thiol was eluted at 5.3 min. All products (compounds 1, 2, 11, 3a, 3b, 4a, 4b, 12a, 12 b, 6, 7, 13 and 8) were separated and characterized by LC/MS/MS in a positive ESI ion mode. All analytes had the protonated molecular MH^+ as the major species with little source fragmentation. Full scan accurate mass peak areas were used to estimate relative abundance of each component and the disappearance of 1, 2, and 11 estimated relative full scan peak areas was consistent with that estimated based on the relative abundance compared to time 0 by MS or UV. The results are reported in Table 15 below and the analytical results are presented in Table 16 below where “Cmpd” refers to compound, “RT” refers to retention time in minutes, and “Calc. Mass” refers to calculated mass. The relative abundance of disulfide cleavage and immolation products over time were evaluated and are disclosed in FIGS. 12A to 12C, 13A to 13C, 14A to 14C and 15A to 15C where the products were monitored by LC/MS from incubations of linker drugs 1, 2, and 11 at pH 7.0 and 37° C. in the presence of: 0.2 mM cysteine (FIGS. 12A, 12B and 12C); 0.03 mM cysteine (FIGS. 13A, 13B and 13C); 4 mM glutathione (FIGS. 14A, 14B and 14C); and 0.03 mM glutathione (FIGS. 15A, 15B and 15C). In FIGS. 12A to 12C, 13A to 13C, 14A to 14C and 15A to 15C, compound reference numbers 1, 2, 3a, 3b, 4a, 4b, 6, 7, 8, 11, 12a, 12b and 13 correspond to the structures below.

calf DNA = assay: DNA binding potential (incubation with calf DNA, extraction, LC/MS); details: 1 mg/mL calf DNA, 37° C., 1 hour
Protocol: For DNA binding analysis, compounds 7 and 8 were incubated at […] with 1 mg/mL calf DNA for 1 hour in 0.5 mL of 10 mM Bis-Tris, pH 7.1 at 37° C. Ethyl acetate (1 mL) was used to extract the reaction mixture twice by vortex (20 seconds) and centrifugation (4 min at 5,000×g). The combined organic extracts were concentrated under vacuum and reconstituted in 0.15 mL of 1:1 water/methanol before injection on LC/MS. The samples were analyzed by LC/MS/UV on Sciex TripleTOF 5600 on a Hypersil Gold C18 column (100×2.1, […], Thermo Scientific) in a positive ESI ion mode. The column was eluted by a gradient of buffer A (0.1% formic acid) to buffer B (0.1% formic acid in acetonitrile), 5% B 0-0.5 min, 5-25% B 0.5-8 min, 25-75% B 8-13 min, and 75-95% B 13-13.5 min, 95% B 13.5-14.5 min, 95-5% B 14.5-15 min at 0.4 mL/min.

[4] = tested on: target-expressing cell lines; details: target-expressing cell lines (Hartley 2011); cited from earlier work
KPL-4 cells = assay: In vitro IC50 of MMAE ADCs, Cell Titer-Glo, KPL-4; format: cell-based; details: 5 days
Protocol: (§1) The in vitro IC50 of ADC compounds MMAE 1, MMAE 2, MMAE 5 and MMAE 6 against SK-BR-3 and KPL-4 cells was evaluated. The cells were plated in 96-well plates (SK-BR-3 at 5000 cell per well; KPL-4 at 1500 cells […]) in cysteine free RPMI+10% FBS+20 mM glutamine+50 pM cysteine media and allowed to adhere overnight. Media was then removed and was replaced with fresh media containing different ADC concentrations. Cell viability was measured 5 days after drug administration using Cell Titer-Glo.

SK-BR-3 cells = assay: In vitro IC50 of MMAE ADCs, Cell Titer-Glo, SK-BR-3; format: cell-based; details: 5 days
Protocol: as §1

**Q.** What does the source list for `CC[C@H](C)[C@@H]([C@@H](CC(=O)N1CCC[C@H]1[C@H](OC)[C@@H](C)C(=O)N[C@H](C)[C@@H](O)c1ccccc1)OC)N(C)C(=O)[C@@H](NC(=O)[C@H](C(C)C)N(C)C(=O)OCC(C)(C)SSC(=N)N)C(C)C` (X18-[NMeV]V[Dil][Dolaproine]-X2)?
**A.** AntP % P (penetratin (AntP) peptide % product) [1]: 90%; HAS CR (HSA Conjugation Ratio) [2]: 0.98

**Q.** For `CC[C@H](C)[C@@H]([C@@H](CC(=O)N1CCC[C@H]1[C@H](OC)[C@@H](C)C(=O)N[C@H](C)[C@@H](O)c1ccccc1)OC)N(C)C(=O)[C@@H](NC(=O)[C@H](C(C)C)N(C)C(=O)OCC(C)(C)SSc1nc(C(=O)O)cn1C)C(C)C` (X19-[NMeV]V[Dil][Dolaproine]-X2), which “AntP % P (penetratin (AntP) peptide % product)” value [1] is on record?
**A.** 4.9%

**Q.** What about the “HAS CR (HSA Conjugation Ratio)” value [2] of the same compound?
**A.** 0.38

**Q.** With `CC[C@H](C)[C@@H]([C@@H](CC(=O)N1CCC[C@H]1[C@H](OC)[C@@H](C)C(=O)N[C@H](C)[C@@H](O)c1ccccc1)OC)N(C)C(=O)[C@@H](NC(=O)[C@H](C(C)C)N(C)C(=O)OCC(C)(C)SSc1nncn1C)C(C)C` (X20-[NMeV]V[Dil][Dolaproine]-X2) as the compound, how does the “AntP % P (penetratin (AntP) peptide % product)” value [1] read?
**A.** 17%

**Q.** What about the “HAS CR (HSA Conjugation Ratio)” value [2] of the same compound?
**A.** 0.66

**Q.** Which results are given for `CC[C@H](C)[C@@H]([C@@H](CC(=O)N1CCC[C@H]1[C@H](OC)[C@@H](C)C(=O)N[C@H](C)[C@@H](O)c1ccccc1)OC)N(C)C(=O)[C@@H](NC(=O)[C@H](C(C)C)N(C)C(=O)OCC(C)(C)SSc1ncc[nH]1)C(C)C` (X21-[NMeV]V[Dil][Dolaproine]-X2)?
**A.** AntP % P (penetratin (AntP) peptide % product) [1]: 1.7%; HAS CR (HSA Conjugation Ratio) [2]: 0.99

**Q.** For `CC[C@H](C)[C@@H]([C@@H](CC(=O)N1CCC[C@H]1[C@H](OC)[C@@H](C)C(=O)N[C@H](C)[C@@H](O)c1ccccc1)OC)N(C)C(=O)[C@@H](NC(=O)[C@H](C(C)C)N(C)C(=O)OCC(C)(C)SSc1nc2cccc(C(=O)O)c2[nH]1)C(C)C` (X22-[NMeV]V[Dil][Dolaproine]-X2), which “AntP % P (penetratin (AntP) peptide % product)” value [1] is on record?
**A.** 25%

**Q.** And the “HAS CR (HSA Conjugation Ratio)” value [2]?
**A.** 0.34

**Q.** For `O=[N+]([O-])c1ccc(S)nc1` [Compound 5, para-nitropyridyl thiol], which pKa (pKa of thiol compounds) is on record?
**A.** 4.7 to 4.8

**Q.** For `C=C1C[C@H]2C=Nc3cc(OCCCCCOc4cc5c(cc4OC)C(=O)N4CC(=C)C[C@H]4[C@H](O)N5C(=O)OCC4(S)CC4)c(OC)cc3C(=O)N2C1` [Compound 7], which “Percentage of all products” value ([3]; 30 μM cysteine, 1 h) is on record?
**A.** 5.1%

**Q.** What about the “Percentage of all products” value ([3]; 30 μM cysteine, 4 h) of the same compound?
**A.** 9.7%

**Q.** What about the “Percentage of all products” value ([3]; 30 μM cysteine, 24 h) of the same compound?
**A.** 11.6%

**Q.** And the “Percentage of all products” value ([3]; 200 μM cysteine, 1 h)?
**A.** 44.7%

**Q.** And the “Percentage of all products” value ([3]; 200 μM cysteine, 4 h)?
**A.** 73.6%

**Q.** What about the “Percentage of all products” value ([3]; 200 μM cysteine, 24 h) of the same compound?
**A.** 87.3%

**Q.** What about the “Percentage of all products” value ([3]; 4 mM GSH, 1 h) of the same compound?
**A.** 80.8%

**Q.** And the “Percentage of all products” value ([3]; 4 mM GSH, 4 h)?
**A.** 89.7%

**Q.** What about the “Percentage of all products” value ([3]; 4 mM GSH, 24 h) of the same compound?
**A.** 92.3%

**Q.** And the “Immolation of thiol intermediate” value ([3]; incubation with cysteine or glutathione)?
**A.** did not appreciably immolate and appeared to be stable

**Q.** What about the pKa (pKa of thiol compounds) of the same compound?
**A.** 4.7 to 4.8

**Q.** And the “DNA binding” value (calf DNA)?
**A.** does not bind to DNA

**Q.** For `C=C1C[C@H]2C=Nc3cc(OCCCCCOc4cc5c(cc4OC)C(=O)N4CC(=C)C[C@H]4C=N5)c(OC)cc3C(=O)N2C1` [Compound 8], which IC50 [4] is on record?
**A.** ~0.05 nM

**Q.** What about the “DNA binding” value (calf DNA) of the same compound?
**A.** quickly binds to DNA

**Q.** What about the “Fraction unextractable after incubation in DNA solution” value (calf DNA) of the same compound?
**A.** approximately 94%

**Q.** With `CC[C@H](C)[C@@H]([C@@H](CC(=O)N1CCC[C@H]1[C@H](OC)[C@@H](C)C(=O)N[C@H](C)[C@@H](O)c1ccccc1)OC)N(C)C(=O)[C@@H](NC(=O)[C@H](C(C)C)N(C)C(=O)OCc1ccc(NC(=O)OC[C@@H](C)SSc2ccc([N+](=O)[O-])cn2)cc1)C(C)C` [MMAE 6] ({X15-PABC}-[NMeV]V[Dil][Dolaproine]-X2) as the compound, how does the “KPL-4 IC50” value (KPL-4 cells) read?
**A.** 0.411 µg/mL

**Q.** What about the “SK-BR-3 IC50” value (SK-BR-3 cells) of the same compound?
**A.** 0.78 µg/mL
